Assay [1] concerns the target T1, USP7 (Homo sapiens, UniProt Q93009, C315A).
T1 construct: 0.25 nM His-His-USP7 (aa208-560, |C315A|) was incubated with compound; His-His (N)
The assay can be described thus: Inhibition of USP7 by Fluorescence Intensity (FLINT) readings, Ubiquitin-Rhodamine-110 substrate. Format: biochemical. Conditions: 0.25 nM His-His-USP7 (aa208-560), 60 minutes at 30° C. preincubation; Ki determined from IC50 according to Cer et al. On the procedure:
USP7 activity was measured using Rhodamine-110 c-terminal labelled Ubiquitin as a substrate (UbiQ Bio), Incubation with USP7 results in the release of Rhodamine-110 leading to an increase in fluorescence which can be used in the continuous measurement of USP7 activity.
The USP7 reactions were performed in a 50 μL volume, in 384 well black solid low binding plates (Corning #3575). The reaction buffer consisted of 100 mM Bicine pH 8.0, 0.01% TritonX 100, 1 mM TCEP, and 10% DMSO.
0.25 nM His-His-USP7 (aa208-560, |C315A|) was incubated with compound (final concentration 10% DMSO) for 60 minutes at 30° C. The reaction was then initiated by the addition of 50) nM Ubiquitin-Rhodamine-110 substrate or 4 μM Ubiquitin-Rhodamine-110 substrate and the plate read every 3 minutes for 21 minutes to measure the release of Rhodamine-110. Fluorescence Intensity (FLINT) readings were measured using a Biomek Neo plate reader (Ex.485 nm, Em.535 nm).
The inhibition of increasing doses of compound was expressed as a percentage reduction in kinetic rate compared to the kinetic rates established between ‘DMSO only’ and ‘total inhibition’ controls (no USP7). The inhibitory concentrations that gave a 50% reduction in kinetic rate (IC50) were determined, from 11-point dose response curves, in XL-Fit using a 4-Parameter Logistic Model 205 (Sigmoidal Dose-Response Model). The K, values were determined from the IC50 values according to Cer et al. Nucleic Acids Res. 2009, July 1; 37 (WebServer issue): W441-W445.

For assay [2], the system named is Z138 mantle cell lymphoma tumour cell lines. The assay can be described thus: In vitro cytotoxicity, MTT assay. The class given is cell-based. Conditions: Z138 cells, exposed to the test compounds for 96 hours. On the procedure: The cytotoxicity studies were evaluated by MTT [3-(4,5-dimethylthiaxol-2-yl)-2,5-diphenyltetrazolium bromide|assay and carried out on Z138 mantle cell lymphoma tumour cell lines. The cells are distributed onto microplates and exposed to the test compounds for 96 hours. MTT is then added for 4 hours and converted by NAD(P)H-dependent cellular oxidoreductase enzymes in forma/an, which has a purple color. The viable cell number is proportional to the production of formazan salts and cell viability can be quantified by the absorbance of the solution at 540 nm with a spectrophotometer (Carmichael et al., Cancer Res. 1987, 47, 936-942).

The term Ki denotes a measure of affinity in units of concentration, obtained from inhibition or displacement. The low end stands for tighter binding, the high end for weaker binding. By IC50 is commonly meant the concentration needed to halve the response being measured. The low end stands for greater potency in that assay, the high end for weaker potency in that assay.

Counter-ions that a name gives are not always drawn.

T1 sequence (Q93009 208-560 C315A): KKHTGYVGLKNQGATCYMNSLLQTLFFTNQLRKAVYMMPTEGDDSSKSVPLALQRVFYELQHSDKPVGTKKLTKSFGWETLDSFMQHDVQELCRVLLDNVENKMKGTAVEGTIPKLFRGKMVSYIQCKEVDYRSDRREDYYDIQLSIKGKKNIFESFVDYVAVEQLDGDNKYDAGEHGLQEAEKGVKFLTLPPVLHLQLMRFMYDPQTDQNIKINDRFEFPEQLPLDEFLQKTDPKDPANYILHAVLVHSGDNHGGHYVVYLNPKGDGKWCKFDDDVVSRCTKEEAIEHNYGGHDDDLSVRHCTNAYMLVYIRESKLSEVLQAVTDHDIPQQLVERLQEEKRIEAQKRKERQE

For the compound “5-amino-3-[(3SR,4SR)-3-fluoro-4-hydroxy-1-(3R,4R)-1-[4-methyl-2-(6-methyl-3-pyridyl)thiazole-5-carbonyl]-3-phenyl-piperidine-4-carbonyl]-4-piperidyl]methyl]-6-(4-fluorophenoxy)pyrimidin-4-one and 5-amino-3-[[(3RS,4RS)-3-fluoro-4-hydroxy-1-[(3R,4R)-1-[4-methyl-2-(6-methyl-3-pyridyl)thiazole-5-carbonyl]-3-phenyl-piperidine-4-carbonyl]-4-piperidyl]methyl]-6-(4-fluorophenoxy)pyrimidin-4-one [Example 198]”, in assay [1], the Ki stood at 10.7 nM. In assay [2], this compound registered an IC50 of 3.14 nM.
The like results for “5-amino-3-[[(3SR,4RS)-3-fluoro-4-hydroxy-1- (3R,4R)-1-[4-methyl-2-(6-methyl-3-pyridyl)thiazole-5-carbonyl]-3-phenyl-piperidine-4carbonyl]-4-piperidyl]methyl]-6-(4-fluorophenoxy)pyrimidin-4-one and 5-amino-3-[[(3RS,4SR)-3-fluoro-4-hydroxy-1-(3R,4R)-1-[4-methyl-2-(6-methyl-3-pyridyl)thiazole-5-carbonyl]-3-phenyl-piperidine-4-carbonyl]-4-piperidyl]methyl]-6-(4-fluorophenoxy)pyrimidin-4-one [Example 197]” were, in that order, 14 nM and 9.7 nM.
In assay [1], `Nc1c(Oc2ccc(F)cc2)ncn(C[C@@]2(O)CCN(C(=O)[C@@H]3CCNC[C@H]3c3ccccc3)CC2(F)F)c1=O` [Example 11, 5-amino-3-[[(4S)-3,3-difluoro-4-hydroxy-1-[(3R,4R)-3-phenylpiperidine-4-carbonyl]-4-piperidyl]methyl]-6-(4-fluorophenoxy)pyrimidin-4-one] showed a Ki of 99.4 nM. In assay [2] (Homo sapiens, Z-138), the IC50 turned out to be 390 nM.
In the case of `COc1ccc(NC(=O)N2CC[C@@H](C(=O)N3CCC(O)(Cn4cnc(Oc5ccc(F)cc5)c(N)c4=O)CC3)[C@H](c3ccccc3)C2)c(OC)c1` [Example 82], affinity in assay [1] was put at a Ki of 16 nM.
Still for that read-out and setting: the value for `Nc1c(Oc2ccc(F)cc2)ncn(CC2(O)CCN(C(=O)[C@@H]3CCN(C(=O)Nc4nc(C(F)(F)F)cs4)C[C@H]3c3ccccc3)CC2)c1=O` [Example 88, (3R,4R)-4-[4-[[5-amino-4-(4-fluorophenoxy)-6-oxo-pyrimidin-1-yl]methyl]-4-hydroxy-piperidine-1-carbonyl]-3-phenyl-N-[4-(trifluoromethyl)thiazol-2-yl]piperidine-1-carboxamide] was 187 nM.
Same read-out and setting: the same measure for `Nc1c(Oc2ccc(F)cc2)ncn(CC2(O)CCN(C(=O)[C@@H]3CCN(C(=O)NCC(F)(F)F)C[C@H]3c3ccccc3)CC2)c1=O` [Example 90]: 345 nM; for `Nc1c(Oc2ccc(F)cc2)ncn(CC2(O)CCN(C(=O)[C@@H]3CCN(C4(c5ccc(F)cc5)COC4)C[C@H]3c3ccccc3)CC2)c1=O` [Example 110, 5-amino-6-(4-fluorophenoxy)-3-[[1-[(3R,4R)-1-[3-(4-fluorophenyl)oxetan-3-yl]-3-phenyl-piperidine-4carbonyl]-4-hydroxy-4-piperidyl]methyl]pyrimidin-4-one]: 182 nM; for `CC1(N2CC[C@@H](C(=O)N3CCC(O)(Cn4cnc(Oc5ccc(F)cc5)c(N)c4=O)CC3)[C@H](c3ccccc3)C2)COC1` [Example 111, 5-amino-6-(4-fluorophenoxy)-3-[[4-hydroxy-1-[(3R,4R)-1-(3-methyloxetan-3-yl)-3-phenyl-piperidine-4-carbonyl]-4-piperidyl]methyl]pyrimidin-4-one]: 312 nM.
`CC(C)C1(N2CC[C@@H](C(=O)N3CCC(O)(Cn4cnc(Oc5ccc(F)cc5)c(N)c4=O)CC3)[C@H](c3ccccc3)C2)COC1` [Example 112, 5-amino-6-(4-fluorophenoxy)-3-[[4-hydroxy-1-[(3R,4R)-1-(3-isopropyloxetan-3-yl)-3-phenyl-piperidine-4-carbonyl]-4-piperidyl]methyl]pyrimidin-4-one] returned a Ki in assay [1] of 203 nM.
Same read-out and setting: the value for `CC1(N2CC[C@@H](C(=O)N3CCC(O)(Cn4cnc(Oc5ccccc5)c(N)c4=O)CC3)[C@H](c3ccccc3)C2)COC1` [Example 113, 5-amino-3-[[4-hydroxy-1-[(3R,4R)-1-(3-methyloxetan-3-yl)-3-phenyl-piperidine-4-carbonyl]-4-piperidyl]methyl]-6-phenoxy-pyrimidin-4-one] was 30.6 nM; that for `Nc1c(Oc2ccccc2)ncn(CC2(O)CCN(C(=O)[C@@H]3CCN(C4(c5ccc(F)cc5)COC4)C[C@H]3c3ccccc3)CC2)c1=O` [Example 115] was 418 nM; that for `Nc1c(Oc2ccc(F)cc2)ncn(CC2(O)CCN(C(=O)[C@@H]3CCN(C(=O)c4cccc(C5CCCNC5)c4)C[C@H]3c3ccccc3)CC2)c1=O` (stereo partly drawn) [Example 116, 5-amino-6-(4-fluorophenoxy)-3-[(4-hydroxy-1-((3R,4R)-3-phenyl-1-[3-(piperidin-3-yl)benzoyl]piperidine-4-carbonyl}piperidin-4-yl)methyl]pyrimidin-4(3H)-one] was 8 nM.
Still for that read-out and setting: the value for `Nc1c(Oc2ccc(F)cc2)ncn(CC2(O)CCN(C(=O)[C@@H]3CCN(S(=O)(=O)c4ccc(-c5cccs5)s4)C[C@H]3c3ccccc3)CC2)c1=O` [Example 118, 5-amino-6-(4-fluorophenoxy)-3-[[4-hydroxy-1-[(3R,4R)-3-phenyl-[[5-(2thienyl)-2-thienyl]sulfonyl]piperidine-4-carbonyl]-4-piperidyl]methyl]pyrimidin-4-one] was 123 nM.
Still for that read-out and setting: the value for `COc1cc(Oc2ncnc(OC[C@@]3(O)CCN(C(=O)[C@@H]4CCN(C(=O)OC(C)(C)C)C[C@H]4c4ccccc4)CC3(F)F)c2N)ccc1F` [Example 135] was 206 nM; that for `CC(C)(C)OC(=O)N1CC[C@@H](C(=O)N2CCC(O)(Cn3cnc(Oc4cccnc4)c(N)c3=O)CC2)[C@H](c2ccccc2)C1` [Example 137, tert-butyl (3R,4R)-4-[4-[[5-amino-6-oxo-4-(3-pyridyloxy)pyrimidin-1-yl]methyl]-4-hydroxy-piperidine-1-carbonyl]-3-phenyl-piperidine-1-carboxylate] was 226 nM.
As to `Cc1nc(-c2cccs2)sc1C(=O)N1CC[C@@H](C(=O)N2CCC(O)(Cn3cnc(Oc4ccc(F)cc4)c(N)c3=O)CC2)[C@H](c2ccccc2)C1` [Example 150, 5-amino-6-(4-fluorophenoxy)-3-[[4-hydroxy-1-[(3R,4R)-1-[4-methyl-2-(2-thienyl)thiazole-5-carbonyl]-3-phenyl-piperidine-4-carbonyl]-4-piperidyl]methyl]pyrimidin-4-one], the Ki in assay [1] worked out at 21.9 nM.
With `Nc1c(Oc2cccnc2)ncn(CC2(O)CCN(C(=O)[C@@H]3CCNC[C@H]3c3ccccc3)CC2)c1=O` [Example 151, 5-amino-3-[[4-hydroxy-1-[(3R,4R)-3-phenylpiperidine-4-carbonyl]-4-piperidyl]methyl]-6-(3-pyridyloxy)pyrimidin-4-one, hydrochloride], in assay [1], the Ki worked out at 214 nM.
The same measure, in the same setting: the same measure for `COc1ccc(C2(N3CC[C@@H](C(=O)N4CCC(O)(Cn5cnc(Oc6ccc(F)cc6)c(N)c5=O)CC4)[C@H](c4ccccc4)C3)COC2)cc1` [Example 156, 5-amino-6-(4-fluorophenoxy)-3-[[4-hydroxy-1-[(3R,4R)-1-[3-(4-methoxyphenyl)oxetan-3-yl]-3-phenyl-piperidine-4-carbonyl]-4-piperidyl]methyl]pyrimidin-4-one]: 140 nM; for `Nc1c(Oc2ccc(F)cc2)ncn(CC2(O)CCN(C(=O)[C@@H]3CCN(C4(c5cccc(Br)c5)COC4)C[C@H]3c3ccccc3)CC2)c1=O` [Example 170, 5-amino-3-[[1-[(3R,4R)-1-[3-(3-bromophenyl)oxetan-3-yl]-3-phenyl-piperidine-4-carbonyl]-4-hydroxy-4-piperidyl]methyl]-6-(4-fluorophenoxy)pyrimidin-4-one]: 78.5 nM.
In assay [1], `COc1cc(Oc2ncn(C[C@@]3(O)CCN(C(=O)[C@@H]4CCN(Cc5ccncn5)C[C@H]4c4ccccc4)CC3(F)F)c(=O)c2N)ccc1F` [Example 220, 5-amino-3-[[(4S)-3,3-difluoro-4-hydroxy-1-[(3R,4R)-3-phenyl-1-(pyrimidin-4-ylmethyl)piperidine-4-carbonyl]-4-piperidyl]methyl]-6-(4-fluoro-3-methoxy-phenoxy)pyrimidin-4-one] yielded a Ki of 98.2 nM.

The values are drawn from US20210355106A1, “NEW AMINO-PYRIMIDONYL-PIPERIDINYL DERIVATIVES, A PROCESS FOR THEIR PREPARATION AND PHARMACEUTICAL COMPOSITIONS CONTAINING THEM” (LES LABORATOIRES SERVIER, priority 2018, published 2021).
